# From patent US20140371159A1, “IN VITRO METHOD FOR MODIFYING THE DEPLETION PROFILE OF TREG CELLS PRESENT IN A TOTAL SPLENOCYTE POPULATION OF A BIOLOGICAL SAMPLE BY MEANS OF THE ISOLATION, CULTURING AND EXPOSURE THEREOF TO AN ATP AND POLYMIXIN B MEDIUM” (Universidad de Santiago de Chile, priority 2011, published 2014)
# “Also recorded” adds a separate entry of the source. Where two headings read alike, the source gives them in different places.
# Legend:
# [1] = tested on: CD4+CD25+FOXP3+ lymphocyte populations (Treg); test: In vitro effect on Treg cells in total mouse splenocyte population, flow cytometry (Example 1); assay type: cell-based, mice C57/BL6; conditions: for modification of the ATP-induced effect on Treg cells: ATP response curve, FIGS. 3A and 3B
# Experimental: (§1) To determine the in vitro effect of polymyxin and other receptor modulators: P2X7, spleen from mice b6 and/or balbc were extracted, and splenocytes were isolated using repeated centrifugation, eliminating red cells for treatment with a lysis buffer ACK. Generally, the experiments were performed in cells obtained from animals b6. The obtained splenocytes are cultured in RPMI Medium supplemented with antibiotics and serum at 10%. Cells remain in rest for 2 hours at a concentration of 1 million cells/ml, after the same are breeding and incubated with purinergic agonists dissolved in PBS (ATP 0.1 μM-1,000 μM and NAD 0.01-1,000 μM), modulators of PMB receptor (0.001 up to 1,000 μg/m1) and gramicidine (0.001 up to 100 mg/ml). In the case of antagonists, these are used at concentrations which have been described as being more specific to P2X7 than other receptors.
# Cells are cultured for different time under a RPMI culture environment supplemented with antibiotics (penicillin, streptomycin and fungizone) with serum fetal bovine serum at 10% in a culture stove at 37° C. and 5% CO2, which will be named as standard conditions. To evaluate the effect of the treatment over regulating T lymphocytes, samples were taken for the treatments (independients) at 24, 48 and 72 hours post challenge. The recovered lymphocytes were centrifuged at 800 g and processed to be marked with antibodies against CD4, CD8, CD25. […] Samples were analyzed in a cytometer of low and analized to different subpopulations to different evaluated times. The results obtained herein allow determining that PMB in vitro under the described conditions, selectively deplexing to splenocyte regulating T lymphocytes.
# Splenocytes 2×10^6 cells/ml obtained from spleen of mice C57/BL6 (6 weeks old) were cutured by 1 hour in plates 24 wells at 37° C., 5% CO2. Lately, cells were treated with PMB (Sigma-Aldrich, St Louis, Mont., USA) to different times and concentrations (0-24-48 and 72 hours, concentrations from 0.01 a 1,000 μg/ml). The treatments were kept for 24, 48 and 72 h, in which cells were kept into RPMI-1640 medium supplemented at 37° C. 5% CO2. After the treatments cells were harvested in buffer IF (PBS 2% SFB) could without dragging the adherent population. The obtained cells were blocked at 4° C. for 30 min in buffer IF. To determine the CD4+, CD8+y CD4+CD25+FOXP3+ lymphocyte populations, about 10^6 cells to were incubated with Anti-CD8 Ly-2 (BDpharmigen, Mississauga, Ontario, USA) 4° C. for 30 min with constant stirring and CD4+ T lymphocytes and Treg were identified with the kit of marking cells Treg #3 (eBioscience, San Diego, Calif., USA)as the manufacturer protocol. After the incubation cells were re-suspended in buffer IF and analyzed by flow cytometry in the equipment FACSCantoll (Beckett Dickinson, Mississauga, Ontario, USA). The same experiments above described were repeated evaluating the effect of gramicidine, ATP and ATP in presence of two PMB concentrations.
# [2] = tested on: CD4+, CD8+ lymphocyte populations; test: In vitro effect on CD8 and CD4 populations in total mouse splenocyte population, flow cytometry (Example 1); assay type: cell-based, mice C57/BL6
# Experimental: To determine the in vitro effect of polymyxin and other receptor modulators: P2X7, spleen from mice b6 and/or balbc were extracted, and splenocytes were isolated using repeated centrifugation, eliminating red cells for treatment with a lysis buffer ACK. Generally, the experiments were performed in cells obtained from animals b6. The obtained splenocytes are cultured in RPMI Medium supplemented with antibiotics and serum at 10%. […]
# Cells are cultured for different time under a RPMI culture environment supplemented with antibiotics (penicillin, streptomycin and fungizone) with serum fetal bovine serum at 10% in a culture stove at 37° C. and 5% CO2, which will be named as standard conditions. […] Samples were analyzed in a cytometer of low and analized to different subpopulations to different evaluated times. […]
# Splenocytes 2×10^6 cells/ml obtained from spleen of mice C57/BL6 (6 weeks old) were cutured by 1 hour in plates 24 wells at 37° C., 5% CO2. […] After the incubation cells were re-suspended in buffer IF and analyzed by flow cytometry in the equipment FACSCantoll (Beckett Dickinson, Mississauga, Ontario, USA). […]
# [3] = tested on: systemic regulating T lymphocytes in animal spleen; test: In vivo Treg lymphocyte depletion in spleen after subcutaneous injection (Examples 3 and 5); set-up: species or system mice C57/BL6; conditions: for death of systemic regulating T lymphocytes in spleen, drug alone: day 3 post challenge, PMB up to 400 μg total or ATP up to 50 μmoles, FIGS. 10A-10C
# Experimental: To evaluate the complementary PMB activity in antitumor therapy, first is determined the effect of this over the in vivo regulating T population. To this, animals having 6-15 weeks and different sex were subcutaneously injected with a solution containing PMB alone (between 4 to 400 μg total), ATP (between 0,4 a 40 mg total) or mixture thereof, in ratios which are not affected therebetween, the CD4CD25 foxp3 population. Animals were dead are different post-injection time, spleen was extracted, erythrocytes eliminated and T lymphocytes present evaluated. […] To evaluate the complementary PMB activity in antitumor therapy, cells B16 were cultured under standard conditions in a culture DMEM medium with fetal bovine serum at 10% in a culture stove at 37° C. and 5% CO2. Cells were cultures and submitted to dead induced by deprivation of culture medium for 96 hours, into a culture stove. Cell bodies obtained were collected in sterility conditions and stored at a concentration estimated considering 1 million initial cells/ml. These bodies were prepared together with PMB and ATP inducing a reduction of T reg lymphocytes and injected 3 times each 7 days. After 7 days, once ended the immunization protocol, animals were challenged with 20.000 cells b16 alive obtained from exponential growing culture. Tumor growth was evaluated by hand after the first week daily and measure with a vernier calliper.
# Mice were dead, the spleen was extracted and then marking with α-CD4, αCD25, α-CD8 and α-Foxp3 antibodies were made.
# Subcutaneous injections were made in mice C57/BL6 of 6 weeks old with different concentrations of PMB, ATP or mixing concentrations of both. Mice were dead, the spleen extracted and subsequently markings were made with α-CD4, αCD25, α-CD8 and α-Foxp3 antibodies.
# [4] = tested on: Melanome murine cells B16; test: Antitumor immune therapy: immunization with B16 apoptotic bodies, then tumor challenge (Example 4); assay type: in vivo, mice; conditions: for prophylaxis against the development of tumor b16: given with cell bodies; for protection of challenged animals (free of tumor): cell bodies (CA B16) alone or with the additive
# Experimental: To evaluate the complementary PMB activity in antitumor therapy, first is determined the effect of this over the in vivo regulating T population. To this, animals having 6-15 weeks and different sex were subcutaneously injected with a solution containing PMB alone (between 4 to 400 μg total), ATP (between 0,4 a 40 mg total) or mixture thereof, in ratios which are not affected therebetween, the CD4CD25 foxp3 population. Animals were dead are different post-injection time, spleen was extracted, erythrocytes eliminated and T lymphocytes present evaluated. The results obtained herein allow determining that PMB injected deplexing regukating T lymphocytes under a transient way. To evaluate the complementary PMB activity in antitumor therapy, cells B16 were cultured under standard conditions in a culture DMEM medium with fetal bovine serum at 10% in a culture stove at 37° C. and 5% CO2. Cells were cultures and submitted to dead induced by deprivation of culture medium for 96 hours, into a culture stove. Cell bodies obtained were collected in sterility conditions and stored at a concentration estimated considering 1 million initial cells/ml. These bodies were prepared together with PMB and ATP inducing a reduction of T reg lymphocytes and injected 3 times each 7 days. After 7 days, once ended the immunization protocol, animals were challenged with 20.000 cells b16 alive obtained from exponential growing culture. Tumor growth was evaluated by hand after the first week daily and measure with a vernier calliper. The resuts obtained herein allow determining that PMB in vivo plus ATP and with cell bodies act in a prophylactic way increasing the number of animals free of tumor after the challenge with alive b16 cells.
# Mice from 6 to 8 weeks old were treated with apoptotic bodies (CA) derived from Melanome murine cells B16 (2×10^4), with CA B16 plus ATP 500 μM, CA B16 plus PMB 10 mg/mL and with mixtures if the above three, the control was performed with the sterile immunization carrier PBS 1X.
# Immunizations were performed by subcutaneous injection in the right flank in a final volume of 50 μL, at day 0, 7 and 21 of treatment. Day 0 marks the starting of the treatments. In day 28 post injection a tumor challenge was made. To that 10^4 tumor cells alive were injected in the left flank of the individual in a volume of 50 μL in sterile PBS 1X.
# (§2) Mice were daily observed recording activity, weight and aspect according to parameters described by Morton y Griffiths, 1985 (see Morton D B, Griffiths P H. Guidelines on the recognition of pain, distress and discomfort in experimental animals and an hypothesis for assessment. Vet Rec. 1985 Apr. 20; 116(16):431-6). The tumor appearance was recorded and followed up to a tumor volume of 0.6 cm^3, in which animals were euthanized by cervical dislocation.
# [5] = tested on: CD4+CD25+FOXP3+ lymphocyte populations (human Treg); test: Effect on human Treg lymphocyte populations in PBML from peripheral blood (Example 6); assay type: cell-based; conditions: 24 h; FIG. 11
# Experimental: PBML 2×10^6 cells/ml obtained from peripheral blood extracted by centrifugation in gradient was cultured under standard conditions. Subsequently cells were treated with PMB (Sigma-Aldrich, St Louis, Mont., USA). The Treatments were kept for 24 h, in which cell remain in RPMI-1640 medium supplemented at 37° C. 5% CO2. After the treatments cells were harvested in buffer IF (PBS 2% SFB) cold. The obtained cells were blocked at 4° C. for 30 min in buffer IF. To determine the CD4+, CD8+ and CD4+CD25+FOXP3+ lymphocyte populations. After incubation cells were resuspended in buffer IF and analyzed by flow cytometry in the FACSCantoll equipment (Beckett Dickinson, Mississauga, Ontario, USA).
# [6] = tested on: P2X7 receptor (CD4+CD25+ population); test: Effect of P2X7 antagonists on PMB/ATP-induced depletion of CD4+CD25+ population in splenocytes (Example 2); assay type: cell-based, mice; conditions: for inhibition of the effect of low dose PMB and ATP over CD4+CD25+ populations: PPADS 10 μM, BBG 100 nM, PMB 1 μg/mL, ATP 60 μM and both, FIG. 4; for inhibition of the effect induced by ATP 100 μM over CD4+CD25+ population: BBG 100 nM (FIG. 5), A740003 (FIG. 6)
# Experimental: as §1
# Splenocytes were treated with PMB (Sigma-Aldrich, St Louis, Mont., USA) to different times and concentrations in presence of two modulators negative of the P2X7, PPADS activity and specific antagonist of P2X7 Brilliant Blue G (BBG) (see Brilliant Blue G Selectively Blocks ATP-Gated Rat P2X7 receptors. JIANG, 2000. 12). Cells were kept for 24 hrs in conditions of cell culture. Subsequently cells were recollected, blotted and analyzed by flow cytometry.
# [7] = tested on: lymphoma EL4 y EL4/ADM, tumor cell lines C1498 y REH; conditions: cited from earlier work
# [8] = Secondary effects on health condition and regular behavior of treated animals; assay type: in vivo, mice; conditions: effective dose in animals
# Experimental: as §2
# [9] = total population of spleeny lymphocytes
compound,measurement,setting,value
gramicidine,effect over Treg (CD4+CD25+) population,[1]; [9],does not induce changes
same,"effect over CD8 / CD4 (T helper, T cytotoxic) populations",[2],does not induce changes
Nc1ncnc2c1ncn2[C@@H]1O[C@H](COP(=O)(O)OP(=O)(O)OP(=O)(O)O)[C@@H](O)[C@H]1O [ATP],"death of systemic regulating T lymphocytes in spleen, drug alone",[3],does not induce the death
same,prophylaxis against the development of tumor b16,[4],induces prophylaxis
same,death of human Treg cells,[5],induces the death of Treg cells
Cc1nc(N=Nc2ccc(S(=O)(=O)O)cc2S(=O)(=O)O)c(COP(=O)(O)O)c(C=O)c1O [PPADS],inhibition of the effect of low dose PMB and ATP over CD4+CD25+ populations,[6],are inhibited
"CCOc1ccc(Nc2ccc(/C(=C3C=C/C(=[N+](/CC)Cc4cccc(S(=O)(=O)[O-])c4)C=C/3C)c3ccc(N(CC)Cc4cccc(S(=O)(=O)[O-])c4)cc3C)cc2)cc1.[Na+] [BBG, Brilliant Blue G]",inhibition of the effect induced by ATP 100 μM over CD4+CD25+ population,[6],only inhibits
same,inhibition of the effect of low dose PMB and ATP over CD4+CD25+ populations,[6],are inhibited
COc1ccc(CC(=O)NC(N=C(NC#N)Nc2cccc3ncccc23)C(C)(C)C)cc1OC (stereo not drawn) [A740003],inhibition of the effect induced by ATP 100 μM over CD4+CD25+ population,[6],inhibits only
polymyxin B [PMB],potentiation of Treg lymphocyte depletion in vivo,"[3]; after 72 hrs of in vivo exposition, PMB 150 and 350 μg/Kg with ATP 1 g/Kg",can potentiate the deplexion
same,PMB dose giving maximum depletion of Tregs lymphocytes,"[3]; at a determined ATP dose (1 g/Kg), subcutaneous, FIG. 8",0.35 mg/kg
same,dose behavior in depletion of Tregs lymphocytes,"[3]; at a determined ATP dose, FIG. 8",linear behavior
same,"death of systemic regulating T lymphocytes in spleen, drug alone",[3],does not induce the death
same,protection of challenged animals (free of tumor),"[4]; day 20 after inoculation of tumor cells, ATP 500 μM, PMB 10 mg/mL",60%
same,protection of challenged animals (free of tumor),[4]; day 60 post inoculation,20%
same,prophylaxis against the development of tumor b16,[4],induces prophylaxis
same,increase of effectiveness of antitumor immunotherapy based on tumor cell bodies,[4]; murine melanoma model,50%
same,depleting concentration relative to that used in clinical and therapeutic procedures,[1],100 times lower
same,modification of the ATP-induced effect on Treg cells,[1]; PMB at 1 μg/ml,slightly modifies the effect induced by ATP
same,modification of the ATP-induced effect on Treg cells,[1]; PMB at 10 μg/ml,produces a significant change in the response curve to ATP
same,effect over Treg (CD4+CD25+) population,[1]; [9],able to induce the death
same,PMB concentration at which PMB itself induces Treg cell depletion,"[1]; total population of spleeny lymphocytes, FIGS. 1A and 1B",≥ 1 µg/mL
same,death of human Treg cells,[5],induces the death of Treg cells
same,cell death in eukaryote tumor cell lines,[7],induces cell death
same,"effect over CD8 / CD4 (T helper, T cytotoxic) populations",[2]; [9],does not significantly affect; also recorded: without affecting the CD8 population neither the CD4 population
same,secondary effects over health condition and regular behavior,[8],does not demonstrate the appearance of secondary effects
same,dependence of Treg depletion on P2X7 receptor activation,[6]; 24 hrs culture with PPADS or BBG,partially depends on the P2X7 receptor activation
